Source: patent US20140186329A1, “POLYPHENOL ANALOGS TO TREAT ISCHEMIA” (priority 2011, published 2014)
One block for each molecule: values may come before it.

Columns and labels:
[1] = system: primary mouse cortical neurons; assay: Primary cortical cell glutamate excitotoxicity assay; assay type: cell-based; conditions: for % protection against glutamate excitotoxicity at 0.1 µM: Mus musculus, Cortical neurone; for % protection against glutamate excitotoxicity at 0.1 µM / Primary Cortical Cell assay-Glutamate (% protection @ 100 nM): 10 μM glutamate, compound 100 nM
Method: (§1) FIG. 5 illustrates pharmacological effects of Baicalein on cultured cells. (A) Trophic factor withdrawal. Primary cortical neurons are prepared from 18-day-old rat embryos, and cultured at low cell density 1×10^6/35 mm dish, in serum containing medium with Baicalein (10-10,000 nM), and viability assayed 2 days later using a live-dead assay. (B) Excitotoxicity assay was done with E14 mouse primary cortical neuron cultures. After 11 days of culture, cells were exposed to 10 μM glutamate for 10 min, followed by the addition of varying concentrations of Baicalein (0.2-5 μM). Cell viability was determined 24 hr later with a standard MTT assay. (C) PC12 cells were glucose-deprived then were incubates in the absence or presence of Baicalein. Cell viability was determined 24 hr later using the MTT assay. (D) RCG-5 nerve cells were treated with 30 μM iodoacetic acid for 2 hr in the presence or absence of 5-25 μM Baicalein. In some experiments, Baicalein was added 2 hr after the ischemic event. Cell survival (%) was measured after 24 hr by the MTT assay. Baicalein added before (□) or 2 hr after ([…]) ischemia.
Primary cultures of cortical neurons that die due to excitotoxicity were prepared as described previously. Briefly, BALB/c mouse embryo cortices were minced and treated with 0.1% trypsin for 20 min. After centrifugation, the cells are resuspended in 827 Neurobasal medium (Invitrogen) plus 10% fetal calf serum and are dissociated by repeated pipetting through a 1 mL blue Eppendorf pipette tip. Then the cells are plated at 1×10^5 cells per well in 96-well poly-L-lysine and laminin-coated microtiter plates (Becton Dickinson, Bedford, Mass., USA) in 827 Neurobasal plus 10% fetal calf serum and 20% glial growth-conditioned medium. Two days later the medium is aspirated and replaced by serum-free 827 Neurobasal medium plus 10 μg/mL cytosine arabinoside. The cultures are used without media change 11 days after plating and are essentially free of astrocytes. They are exposed to 10 μM glutamate followed by varying concentrations of the compounds. Cell viability is determined 24 h later using the fluorescent live/dead assay. Glial conditioned medium is prepared from confluent rat astrocyte cultures. The cells are washed twice with serum-free medium and incubated for 2 days in serum-free Neurobasal medium to produce the growth conditioned medium.
(1) ≧80% cell survival in mouse HT22 hippocampal cells in the presence of 20 μM iodoacetic acid (IAA) (in vitro ischemia model). See, Maher, et al., Brain Res. 2007, 1173:117-25. (2) ≧35% cell survival in primary mouse cortical neurons in the presence of 10 μM glutamate (in vitro excitotoxicity assay). See, Ishige, et al., Free Radic Biol Med, 2001, 30(4): p. 433-46.

[2] = system: embolic strokes in rabbits; assay: Rabbit small clot embolic stroke model (RSCEM); assay type: in vivo; conditions: for therapeutic window in the RSCEM: time post-embolization
From the text: The ability of polyphenol analogs to treat, prevent and/or mitigate one or more symptoms of stroke can also be evaluated in in vivo assays. Such assays are known in the art and find use. One applicable in vivo screening assay is the rabbit clot embolic stroke model, discussed, e.g., in Lapchak, et al., Stroke (2002) 33(9):2279-84 and Lapchak, Exp Neurol. (2007) 205(2):407-13. The rabbit small clot embolic stroke model (RSCEM) and rabbit large clot embolic stroke model (RLCEM) can be used to determine the potential neuroprotective properties and safety profile of test polyphenol analogs after an embolic stroke. Rabbits are embolized by injecting small blood clots (RSCEM) or large blood clots (RLCEM) into the cerebral circulation. Behavioral analysis is conducted 24 hours later, allowing for determination of the effective stroke dose (ES50) or clot amount (milligrams) that produces severe neurological deficits in 50% of rabbits. A drug is considered neuroprotective if it increases the ES50 compared with the vehicle-treated control group.
Behavioral analysis was conducted at 24 hours following treatment, which allowed for the construction of quantal dose-response analysis curves. […] For the superimposed graphs, normal animals are plotted on the y-axis at 0% and abnormal animals are plotted at 100%. […] Moreover, CGA increased the P50 value (the clot dose that produces abnormality in 50% of a treatment group) compared to vehicle control. For a detailed discussion of the methods used to fit the quantal data to a sigmoidal curve, see Zivin and Waud. The pharmacology of chlorogenic acid in the rabbit small clot embolic stroke model (RSCEM) has been published (Lapchak, Exp Neurol. 2007 205(2):407-13). In the manuscript, it is shown that CGA has a therapeutic window of 60 minutes in the RSCEM. FIG. 2 presents the therapeutic window data.

RCG-5 nerve cells = assay: Chemical ischemia model (IAA) in RCG-5 nerve cells; assay type: cell-based; conditions: 30 μM IAA 2 hr, 5-25 μM, also added 2 hrs after insult
Method: as §1, with “ischemia. […] When these cells are starved for glucose, there is approximately 70% maximal survival in the presence of NGF. Baicalein promotes over 80% survival (FIG. 5C).” for “ischemia.”

PC12 cells = assay: Glucose starvation; assay type: cell-based; conditions: MTT 24 hr
Method: as §1, with “ischemia. […] When these cells are starved for glucose, there is approximately 70% maximal survival in the presence of NGF. Baicalein promotes over 80% survival (FIG. 5C).” for “ischemia.”

[3] = cell based assays (not specified)
[4] = 50 mg/kg intravenously, 5 minutes following embolization, behavior at 24 hours
[5] = administered 1 hour following embolization
[6] = administered 3 hours following embolization

Structure (SMILES): O=c1c(O)c(-c2ccc(O)c(O)c2)oc2c1ccc1ccccc12 [CMS-040, 2-(3,4-dihydroxyphenyl)-3-hydroxy-4H-benzo[h]chromen-4-one]
% protection against glutamate excitotoxicity at 0.1 µM [1]: 86%

Structure (SMILES): COc1cc(-c2oc3cc(C)c(C)cc3c(=O)c2O)ccc1O [CMS-069, 3-hydroxy-2-(4-hydroxy-3-methoxyphenyl)-6,7-dimethyl-4H-chromen-4-one]
Primary Cortical Cell assay-Glutamate (% protection @ 100 nM) [1]: 86%

Structure (SMILES): CC(C)Oc1cc(-c2ccc(O)c(O)c2)nc2ccccc12 [CMS-024, 4-isopropoxy-2-(3,4-dihydroxyphenyl) quinoline]
Primary Cortical Cell assay-Glutamate (% protection @ 100 nM) [1]: 58%

Structure (SMILES): COc1cc(-c2oc3cc(C)c(C)cc3c(=O)c2O)ccc1OCc1ccccc1 [CMS-059, 2-(4-(benzyloxy)-3-methoxyphenyl)-3-hydroxy-6,7-dimethyl-4H-chromen-4-one]
% protection against glutamate excitotoxicity at 0.1 µM [1]: 78%

Structure (SMILES): O=C(/C=C/c1ccc(O)c(O)c1)O[C@@H]1C[C@](O)(C(=O)O)C[C@@H](O)[C@H]1O [Chlorogenic Acid, 1,3,4,5-tetrahydroxy-cyclohexanecarboxylic acid 3-(3,4-dihydroxycinnamate)]
% protection against glutamate excitotoxicity at 0.1 µM [1]: 0%
P50 value (clot dose that produces abnormality in 50% of a group) [2, 4]: 3.61 ± 0.52 mg
improvement of behavior [2, 5]: effective at improving behavior
improvement of behavior [2, 6]: neither improve behavior
therapeutic window in the RSCEM [2]: 60 min

Structure (SMILES): CCOc1cc(-c2ccc(O)c(O)c2)nc2ccccc12 [CMS-023, 4-ethoxy-2-(3,4-dihydroxyphenyl) quinoline]
Primary Cortical Cell assay-Glutamate (% protection @ 100 nM) [1]: 100%

Structure (SMILES): O=c1cc(-c2ccccc2)oc2cc(O)c(O)c(O)c12 [Baicalein, 5,6,7-trihydroxyflavone, reference compound]
cells rescued in excitotoxicity assay ([1]; E14 mouse cortical neurons, 10 μM glutamate 10 min, 0.2-5 μM, MTT 24 hr): about 35%
% protection against glutamate excitotoxicity at 0.1 µM [1]: 0%
prevention of cell death in chemical ischemia model (RCG-5 nerve cells): prevents cell death
survival of glucose-starved cells (PC12 cells): over 80%
P50 value (clot dose that produces abnormality in 50% of a group) ([2]; 100 mg/kg subcutaneously, 60 minutes following embolization): 2.15 ± 0.12 mg
improvement of behavior [2, 5]: effective at improving behavior
improvement of behavior [2, 6]: neither improve behavior
therapeutic window in the RSCEM [2]: ≥ 60 min

EC50 [3]: 2 to 5 µM
Structure (SMILES): O=c1c(O)c(-c2ccc(O)c(O)c2)oc2cc(O)ccc12 [Fisetin, 3,7,3′,4′-Tetrahydroxyflavone, reference compound]
Primary Cortical Cell assay-Glutamate (% protection @ 100 nM) [1]: 0%
P50 value (clot dose that produces abnormality in 50% of a group) [2, 4]: 2.53 ± 0.55 mg
